For 46 compounds, melting point results are on record in patent publication US6417202B1, “Pyridylpyrrole compounds useful as interleukin-and TNF antagonists” (Pfizer Inc., priority 1996, dated 2002).

Compound `CCOC(=O)c1c(-c2ccncc2)[nH]c(-c2ccncc2)c1-c1ccc([N+](=O)[O-])cc1` [Example 25, 3-Ethoxycarbonyl-4-(4-nitrophenyl)-2,5-di(4-pyridyl)-1H-pyrrole] displayed a melting point of 274 to 276 °C.

Regarding `Cc1c(-c2ccncc2)[nH]c(-c2ccncc2)c1C=O` [Example 26, 3-Formyl-4-methyl-2,5-di(4-pyridyl)-1H-pyrrole], the melting point was in the range of 278 to 280 °C.

`Cc1c(-c2ccncc2)[nH]c(-c2ccncc2)c1S(C)(=O)=O` [Example 27, 3-Metha nesulfonyl-4-methyl-2,5-di(4-pyridyl)-1H-pyrrole] displayed a melting point of 232 to 234 °C.

Take `CCc1c(-c2ccncc2)[nH]c(-c2ccncc2)c1C(C)=O` [Example 28, 3-Acetyl-4-ethyl-2,5-di(4-pyridyl)-1H-pyrrole]: the melting point fell in the range of 241 to 243 °C.

As to `CCCc1c(-c2ccncc2)[nH]c(-c2ccncc2)c1C(C)=O` [Example 29, 3-Acetyl-4-propyl-2,5-di(4-pyridyl)-1H-pyrrole], the melting point was 111 to 113 °C.

Consider `CCCCc1c(-c2ccncc2)[nH]c(-c2ccncc2)c1C(C)=O` [Example 31, 3-Acetyl-4-butyl-2,5-di(4-pyridyl)-1H-pyrrole], for which the melting point lay in the range of 93 to 95 °C.

Take `CC(=O)c1c(-c2ccncc2)[nH]c(-c2ccncc2)c1CO` [Example 33, 3-Acetyl-4-hydroxymethyl-2,5-di(4-pyridyl)-1H-pyrrole]: the melting point lay in the range of 205 to 207 °C.

As for `Cc1c(-c2ccncc2)[nH]c(-c2ccncc2)c1CO` [Example 39, 3-Hydroxymethyl-4-methyl-2,5-di(4-pyridyl)-1H-pyrrole], the melting point was 258 to 261 °C.

With `Cc1c(-c2ccncc2)[nH]c(-c2ccncc2)c1C(N)=O` [Example 40, 3-Aminocarbonyl-4-methyl-2,5-di(4-pyridyl)-1H-pyrrole], the melting point fell in the range of 212 to 215 °C.

Consider `CC(=O)c1c(C)[nH]c(-c2ccncc2)c1-c1ccncc1` [Example 42, 3-Acetyl-2-methyl-4,5-di(4-pyridyl)1H-pyrrole], for which the melting point lay in the range of 236 to 239 °C.

`CC(=O)c1cc(-c2ccncc2)[nH]c1C` [Example 43, 3-Acetyl-2-methyl-5-(4-pyridyl)-1H-pyrrole] yielded a melting point of 236 to 237 °C.

The compound `CC(=O)c1c(-c2ccccc2)[nH]c(-c2ccncc2)c1C` [Example 46, 3-Acetyl-4-methyl-2-phenyl-5-(4-pyridyl)-1H-pyrrole] gave a melting point of 202 to 203 °C.

The compound `CC(=O)c1c(-c2ccncc2)[nH]c(-c2ccccc2)c1C` [Example 47, 3-Acetyl-4-methyl-5-phenyl-2-(4-pyridyl)-1H-pyrrole] returned a melting point of 208 to 209 °C.

Take `CC(=O)c1c[nH]c(-c2ccncc2)c1C` [Example 48, 3-Acetyl-4-methyl-5-(4-pyridyl)-1H-pyrrole]: the melting point was 210 to 211 °C.

As to `Cc1c(-c2ccncc2)[nH]c2c1C(=O)CCC2` [Example 49, 3-Methyl-4-oxo-2-(4-pyridyl)-4,5,6,7-tetrahydro-1H-indole], the melting point was 248 to 249 °C.

On to `CC(=O)c1c(-c2ccc(F)cc2)[nH]c(-c2ccncc2)c1C` [Example 51, 3-Acetyl-2-(4-fluorophenyl)4-methyl-5-(4-pyridyl)-1H-pyrrole], for which the melting point fell in the range of 202 to 203 °C.

`CC(=O)c1c(-c2cccs2)[nH]c(-c2ccncc2)c1C` [Example 52, 3-Acetyl-4-methyl-5-(4-pyridyl)-2-(2-thienyl)-1H-pyrrole] showed a melting point of 231 to 232 °C.

Compound `O=C1CCCc2c(-c3ccncc3)[nH]c(-c3ccccc3)c21` [Example 53, 4-Oxo-3-phenyl-1-(4-pyridyl)-4,5,6,7-tetrahydroisoindole] came in with a melting point of 259 to 260 °C.

Turning to `O=C1CCCc2c(-c3ccccc3)[nH]c(-c3ccncc3)c21` [Example 54, 7-Oxo-3-phenyl-1-(4-pyridyl)-4,5,6,7-tetrahydroisoindole], the melting point was in the range of 254 to 255 °C.

Compound `Cc1c(-c2ccncc2)[nH]c2c1C(=O)CC(C)(C)C2` [Example 55, 4-Oxo-2-(4-pyridyl)-3,6,6-trimethyl-4,5,6,7-tetrahydro-1H-indole] showed a melting point of 241 to 241.5 °C.

Compound `Cc1c(-c2ccncc2)[nH]c2c1C(=O)CC(c1ccccc1)C2` (stereo not shown) [Example 56, 3-Methyl-4-oxo-6-phenyl-2-(4-pyridyl)-4,5,6,7-tetrahydro-1H-indole] had a melting point of 256 to 257 °C.

With `CC(=O)c1c(-c2cccc(N)c2)[nH]c(-c2ccncc2)c1C` [Example 58, 3-Acetyl-2-(3-aminophenyl)-4-methyl-5-(4-pyridyl)-1H-pyrrole], the melting point fell in the range of 193 to 195 °C.

Take `CC(=O)c1c(-c2ccc3ccccc3c2)[nH]c(-c2ccncc2)c1C` [Example 59, 3-Acetyl-4-methyl-2-(2-naphthyl)-5-(4-pyridyl)-1H-pyrrole]: the melting point was 116 to 123 °C.

On to `CC(=O)c1c(-c2ccc(C=O)cc2)[nH]c(-c2ccncc2)c1C` [Example 60, 3-Acetyl-2-(4-formylphenyl)-4-methyl-5-(4-pyridyl)-1H-pyrrole], for which the melting point lay within 97 to 100 °C.

`CC(=O)c1c(-c2cccc3ccccc23)[nH]c(-c2ccncc2)c1C` [Example 61, 3-Acetyl-4-methyl-2-(1-naphthyl)-5-(4-pyridyl)-1H-pyrrole] registered a melting point of 218 to 220 °C.

Take `CC(=O)c1c(-c2cccc(Oc3ccc(F)cc3)c2)[nH]c(-c2ccncc2)c1C` [Example 62, 3-Acetyl-2-{3-(4-fluorophenoxy)phenyl}-4-methyl-5-(4-pyridyl)-1H-pyrrole]: the melting point lay within 158 to 159 °C.

With `CC(=O)c1c(-c2cccc([N+](=O)[O-])c2)[nH]c(-c2ccncc2)c1C` [Example 64, 3-Acetyl-4-methyl-2-(3-nitrophenyl)-5-(4-pyridyl)-1H-pyrrole], the melting point is 214 to 217 °C.

`CC(=O)c1c(-c2cccnc2)[nH]c(-c2ccncc2)c1C` [Example 65, 3-Acetyl-4-methyl-2-(3-pyridyl)-5-(4-pyridyl)-1H-pyrrole] registered a melting point of 182 to 186 °C.

Consider `CC(=O)c1c(-c2ccc(F)c(Cl)c2)[nH]c(-c2ccncc2)c1C` [Example 66, 3-Acetyl-2-(3-chloro-4-fluorophenyl)-4-methyl-5-(4-pyridyl)-1H-pyrrole], for which the melting point was 206 to 209 °C.

With `C=Cc1[nH]c(-c2ccncc2)c(C)c1C(C)=O` [Example 67, 3-Acetyl-4-methyl-5-(4-pyridyl)-2-vinyl-1H-pyrrole], the melting point lay within 150 to 155 °C.

Turning to `CC(=O)c1c(-c2ccc(Cl)cc2)[nH]c(-c2ccncc2)c1C` [Example 68, 3-Acetyl-2-(4-chlorophenyl)-4-methyl-5-(4-pyridyl)-1H-pyrrole], the melting point is 187.5 to 189.5 °C.

Compound `CC(=O)c1c(-c2ccco2)[nH]c(-c2ccncc2)c1C` [Example 69, 3-Acetyl-2-(2-furyl)-4-methyl-5-(4-pyridyl)-1H-pyrrole] returned a melting point of 218 to 220 °C.

Compound `CC(=O)c1c(-c2ccsc2)[nH]c(-c2ccncc2)c1C` [Example 70, 3-Acetyl-4-methyl-5-(4-pyridyl)-2-(3-thienyl)-1H-pyrrole] had a melting point of 240 to 244 °C.

Turning to `CSc1ccc(-c2[nH]c(-c3ccncc3)c(C)c2C(C)=O)cc1` [Example 71, 3-Acetyl-4-methyl-2-(4-methylthiophenyl)-5-(4-pyridyl)-1H-pyrrole], the melting point lay within 169 to 172 °C.

As for `CC(=O)c1c(-c2ccc(C(F)(F)F)cc2)[nH]c(-c2ccncc2)c1C` [Example 73, 3-Acetyl-4-methyl-5-(4-pyridyl)-2-(4-trifluoromethylphenyl)-1H-pyrrole], the melting point fell in the range of 178.5 to 179.5 °C.

`CC(=O)c1c(-c2ccc([S+](C)[O-])cc2)[nH]c(-c2ccncc2)c1C` (stereo not shown) [Example 75, 3-Acetyl-4-methyl-2-(4-methylsulfinylphenyl)-5-(4-pyridyl)-1H-pyrrole]: the melting point lay in the range of 249 to 250 °C.

Compound `CC(=O)c1c(N2CCN(c3ccccc3)CC2)[nH]c(-c2ccncc2)c1C` [Example 78, 3-Acetyl-4-methyl-2-(4-phenylpiperazin-1-yl)-5-(4-pyridyl)-1H-pyrrole] gave a melting point of 218 to 220 °C.

As to `CC(=O)c1c(N2C[C@@H](C)O[C@@H](C)C2)[nH]c(-c2ccncc2)c1C` [Example 80, 3-Acetyl-2-(cis-2,6-dimethylmorpholin-4-yl)-4-methyl-5-(4-pyridyl)-1H-pyrrole], the melting point lay in the range of 95 to 100 °C.

In the case of `CC(=O)c1c(N2CCN(c3ccccn3)CC2)[nH]c(-c2ccncc2)c1C` [Example 81, 3-Acetyl-4-methyl-5-(4-pyridyl)-2-{4-(2-pyridyl)piperazin-1-yl}-1H-pyrrole], the melting point was in the range of 89 to 92 °C.

The compound `Cc1c(-c2ccncc2)[nH]c2c1C(=O)C(C)(C)CC2` [Example 82 (3,5,5-trimethyl), 4-Oxo-2-(4-pyridyl)-3,5,5-trimethyl-4,5,6,7-tetrahydro-1H-indole] registered a melting point of 237 to 239 °C.

As to `Cc1c(-c2ccncc2)[nH]c2c1C(=O)CCC2(C)C` [Example 82 (3,7,7-trimethyl), 4-Oxo-2-(4-pyridyl)-3,7,7-trimethyl-4,5,6,7-tetrahydro-1H-indole], the melting point is 278 to 280 °C.

The compound `CC(=O)c1c([N+](=O)[O-])[nH]c(-c2ccncc2)c1C` [Example 84, 3-Acetyl-4-methyl-2-nitro-5-(4-pyridyl)-1H-pyrrole] came in with a melting point of 187 to 188 °C.

For `Cc1c(-c2ccncc2)[nH]c2c1C(=O)CC(C)C2` (stereo not shown) [Example 86, 3,6-Dimethyl-4-oxo-2-(4-pyridyl)-4,5,6,7-tetrahydro-1H-indole], the melting point was 247 to 248 °C.

Compound `Cc1c(-c2ccncc2)[nH]c2c1C(=O)CSC2` [Example 87, 3-Methyl-4-oxo-2-(4-pyridyl)-6-thia-4,5,6,7-tetrahydro-1H-indole] registered a melting point of 209 to 210 °C.

Take `CC(=O)c1c(C=O)[nH]c(-c2ccncc2)c1C` [Example 88, 3Acetyl-2-formyl-4-methyl-5-(4-pyridyl)-1H-pyrrole]: the melting point is 208 to 209 °C.

Compound `CC(=O)c1c(CO)[nH]c(-c2ccncc2)c1C` [Example 89, 3-Acetyl-2-hydroxymethyl-4-methyl-5-(4-pyridyl)-1H-pyrrole] returned a melting point of 163 to 165 °C.

A word on the melting point: it is the temperature, or range, at which the solid turns liquid.
